# Key:
# [1] = biological target: T1, rhesus (Macacca Mulatta) H3 receptor (Macaca mulatta, UniProt Q865E1); experiment: Rhesus H3 [3H]-Methylhistamine radioligand binding assay (SPA); parameters: species or system rhesus monkey (Macacca Mulatta); settings: [3H]-Methylhistamine 2 nM, rhesus H3 membranes, Cheng-Prusoff
# T1 construct: 445 amino acid H3 receptor; expressed in transfected cells; host or cells: Flp-In T-REx 293 Cell Line (Invitrogen), pcDNA5/FRT/TO, induced with tetracycline
# Description: (§1) Rhesus H3 membranes were prepared from the Flp-In T-REx 293 Cell Line (Invitrogen) stably transfected with pcDNA5/FRT/TO (Invitrogen) containing the rhesus monkey (Macacca Mulatta) 445 amino acid H3 receptor. (Genbank #AY231164). Stably transfected cultures were amplified in tissue culture flasks by standard tissue culture methods and induced to express rhesus H3 by exposure to 500 ng/ml tetracycline (Cellgro) for 24 hours. After induction, cells were dissociated from flasks utilizing Cell Stripper (Cellgro). Cells were centrifuged (1K×g, 5 min) and pellet frozen in an ethanol-dry ice bath to disrupt cell membranes. Frozen cell pellet was re-suspended in 5 mM HEPES (pH 7.4, Invitrogen) at 10 ml/1000 cm2 of harvested cells. The cell suspension was drawn through an 18 gauge needle (2-3×) followed by a 23 gauge needle (2-3×) to further disrupt cell membranes. The cell suspension was centrifuged (40K×g, 30 min). Cell membrane pellet was re-suspended in 5 mM HEPES (pH 7.4, Invitrogen) at a final protein concentration of 10 mg/ml. Rhesus H3 membranes were stored under liquid nitrogen prior to use in [3H]-Methylhistamine and GTPγS radioligand binding assays.
# (§2) Rhesus H3 radioligand binding assay was performed using rhesus H3 receptor membranes (prepared as described above), [3H]-Methylhistamine (Perkin Elmer) and WGA SPA beads (wheat germ agglutinin scintillation proximity assay) beads (Amersham). The assay was performed in 96-well Opti-Plates (Packard). Each reaction contained 50 μl rhesus H3 membranes (20-30 μg total protein), 50 μl WGA SPA beads (0.1 μg) and 50 μl of 83Ci/mmol [^3H]-Methylhistamine (final concentration 2 nM) and 50 μl of tested compound. The compounds of this invention and/or vehicle were diluted with binding buffer from 10 mM DMSO stocks. Assay plates were sealed with TopSeal (Perkin Elmer) and mixed on shaker (25° C., 1 hour). Assay plates were read on TopCount scintillation counter (Packard). Results were analyzed by Hill transformation and Ki values were determined by Cheng-Prusoff equation. Similar procedure was employed to determine the binding data for rat.
# [2] = biological target: Rat H3 (Rattus norvegicus, UniProt Q9QYN8); experiment: Rat H3 radioligand binding (similar procedure); settings: rat H3, similar procedure to rhesus binding
# Sequence of Rat H3 (Q9QYN8 whole entry): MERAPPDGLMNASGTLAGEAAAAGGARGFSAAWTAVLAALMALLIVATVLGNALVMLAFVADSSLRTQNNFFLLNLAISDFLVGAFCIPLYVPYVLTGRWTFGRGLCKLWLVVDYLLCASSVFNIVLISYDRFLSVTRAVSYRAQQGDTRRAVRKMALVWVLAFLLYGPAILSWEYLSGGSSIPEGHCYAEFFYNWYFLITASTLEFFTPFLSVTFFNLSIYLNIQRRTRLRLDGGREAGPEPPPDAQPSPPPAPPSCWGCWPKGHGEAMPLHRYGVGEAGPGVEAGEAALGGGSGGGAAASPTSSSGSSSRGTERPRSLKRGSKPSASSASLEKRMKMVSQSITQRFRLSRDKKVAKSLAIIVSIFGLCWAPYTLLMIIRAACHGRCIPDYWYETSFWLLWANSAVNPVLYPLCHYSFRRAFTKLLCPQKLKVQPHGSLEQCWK
# Description: as §2
# [3] = biological target: T2, rhesus H3 (Macaca mulatta, UniProt Q865E1); experiment: GTPγS radioligand binding assay, rhesus H3 constitutive functional activity in cell membranes; assay type: biochemical, rhesus monkey (Macacca Mulatta); settings: relative to basal levels
# T2 construct: 445 amino acid H3 receptor; expressed in transfected cells; host or cells: Flp-In T-REx 293 Cell Line (Invitrogen), pcDNA5/FRT/TO, induced with tetracycline
# T2 sequence (Q865E1 1-445): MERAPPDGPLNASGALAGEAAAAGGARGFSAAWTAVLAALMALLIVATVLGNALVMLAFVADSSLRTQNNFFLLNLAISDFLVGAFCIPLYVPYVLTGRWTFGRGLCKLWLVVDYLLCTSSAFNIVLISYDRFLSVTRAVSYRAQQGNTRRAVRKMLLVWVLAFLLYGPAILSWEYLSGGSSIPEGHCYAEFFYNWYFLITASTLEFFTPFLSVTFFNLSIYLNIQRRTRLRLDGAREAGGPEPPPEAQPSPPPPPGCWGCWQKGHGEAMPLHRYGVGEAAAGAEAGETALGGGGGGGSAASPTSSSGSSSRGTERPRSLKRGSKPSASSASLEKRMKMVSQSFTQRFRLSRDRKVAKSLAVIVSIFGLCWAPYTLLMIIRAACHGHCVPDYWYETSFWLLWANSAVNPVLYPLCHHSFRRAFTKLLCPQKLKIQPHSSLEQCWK
# Description: as §1
# T1 sequence (Q865E1 1-445): as above
Compound,Ki [1] [nM],Ki [2] [nM],GTPγS-35 ASSAY % Inverse Agonism [3] [%]
"C[C@H]1CCCN1[C@H]1CCN(c2ccc3c(c2)CN(C(=O)C2CCOCC2)CC3)C1 [Example 2, [7-((2S,3′S)-2-Methyl-[1,3′]bipyrrolidinyl-1′-yl)-3,4-dihydro-1H-isoquinolin-2-yl]-(tetrahydro-pyran-4-yl)-methanone]",0.66,0.91,−25.5
"CCOC(=O)N1CCC(N2CCc3cc(N4CC[C@H](N5CCC[C@@H]5C)C4)ccc3C2)CC1 [Example 3, 4-[6-((2S,3′S)-2-Methyl-[1,3′]bipyrrolidinyl-1′-yl)-3,4-dihydro-1H-isoquinolin-2-yl]-piperidine-1-carboxylic acid ethyl ester]",0.38,0.97,
"C[C@H]1CCCN1[C@H]1CCN(c2ccc3c(c2)CCN(C2CCOCC2)C3)C1.O=C(O)C(F)(F)F [Example 4, 6-((2S,3′S)-2-Methyl-[1,3′]bipyrrolidinyl-1′-yl)-2-(tetrahydro-pyran-4-yl)-1,2,3,4-tetrahydro-isoquinoline hydrochloride]",0.11,0.05,−28.0
"CCOC(=O)C1CCC(N2CCc3cc(N4CC[C@H](N5CCC[C@@H]5C)C4)ccc3C2)CC1 (stereo partly drawn) [Example 5, 4-[6-((2S,3′S)-2-Methyl-[1,3′]bipyrrolidinyl-1′-yl)-3,4-dihydro-1H-isoquinolin-2-yl]-cyclohexanecarboxylic acid ethyl ester]",0.57,0.59,−40.0
"C[C@H]1CCCN1[C@H]1CCN(c2ccc3c(c2)CCN(C2CCN(C(=O)OC(C)(C)C)C2)C3)C1 (stereo partly drawn) [Example 6, 3-[6-((2S,3′S)-2-Methyl-[1,3′]bipyrrolidinyl-1′-yl)-3,4-dihydro-1H-isoquinolin-2-yl]-pyrrolidine-1-carboxylic acid tert-butyl ester]",0.9,0.74,−24.9
"C[C@H]1CCCN1[C@H]1CCN(c2ccc3c(c2)CCN(CC2CCCC2)C3)C1 [Example 7, 2-Cyclopentylmethyl-6-((2S,3′S)-2-methyl-[1,3′]bipyrrolidinyl-1′-yl)-1,2,3,4-tetrahydro-isoquinoline]",1.2,0.19,−6.9
"C[C@H]1CCCN1[C@H]1CCN(c2ccc3c(c2)CCN(Cc2ccc4c(c2)OCCO4)C3)C1 [Example 8, 2-(2,3-Dihydro-benzo[1,4]dioxin-6-ylmethyl)-6-((2S,3′S)-2-methyl-[1,3′]bipyrrolidinyl-1′-yl)-1,2,3,4-tetrahydro-isoquinoline]",0.46,6.9,−9.1
"C[C@H]1CCCN1[C@H]1CCN(c2ccc3c(c2)CCN(Cc2ccc(F)cc2)C3)C1 [Example 9, 2-(4-Fluoro-benzyl)-6-((2S,3′S)-2-methyl-[1,3′]bipyrrolidinyl-1′-yl)-1,2,3,4-tetrahydro-isoquinoline]",0.37,0.19,−6.2
"CC(C)N1CCc2cc(N3CC[C@H](N4CCC[C@@H]4C)C3)ccc2C1 [Example 10, 2-Isopropyl-6-((2S,3′S)-2-methyl-[1,3′]bipyrrolidinyl-1′-yl)-1,2,3,4-tetrahydro-isoquinoline]",0.75,0.91,−9.3
"C[C@H]1CCCN1[C@H]1CCN(c2ccc3c(c2)CCN(C2CCC(NC(=O)OC(C)(C)C)CC2)C3)C1 (stereo partly drawn) [Example 11, {4-[6-((2S,3′S)-2-Methyl-[1,3′]bipyrrolidinyl-1′-yl)-3,4-dihydro-1H-isoquinolin-2-yl]-cyclohexyl}-carbamic acid tert-butyl ester]",0.35,0.31,−7.9
"COc1ccc(C(=O)N2CCc3cc(N4CC[C@H](N5CCC[C@@H]5C)C4)ccc3C2)cc1 [Example 12, (4-Methoxy-phenyl)-[6-((2S,3′S)-2-methyl-[1,3′]bipyrrolidinyl-1′-yl)-3,4-dihydro-1H-isoquinolin-2-yl]-methanone]",2.8,6.2,−26.1
"C[C@H]1CCCN1[C@H]1CCN(c2ccc3c(c2)CCN(C(=O)C(c2ccccc2)c2ccccc2)C3)C1 [Example 13, 1-[6-((2S,3′S)-2-Methyl-[1,3′]bipyrrolidinyl-1′-yl)-3,4-dihydro-1H-isoquinolin-2-yl]-2,2-diphenyl-ethanone]",3.7,7.7,−16.1
"C[C@H]1CCCN1[C@H]1CCN(c2ccc3c(c2)CCN(C(=O)c2cccnc2)C3)C1 [Example 14, [6-((2S,3′S)-2-Methyl-[1,3′]bipyrrolidinyl-1′-yl)-3,4-dihydro-1H-isoquinolin-2-yl]-pyridin-3-yl-methanone]",0.28,2.6,−17.2
"C[C@H]1CCCN1[C@H]1CCN(c2ccc3c(c2)CCN(C(=O)c2ccoc2)C3)C1 [Example 15, Furan-3-yl-[6-((2S,3′S)-2-methyl-[1,3′]bipyrrolidinyl-1′-yl)-3,4-dihydro-1H-isoquinolin-2-yl]-methanone]",0.22,2.7,−16.8
"C[C@H]1CCCN1[C@H]1CCN(c2ccc3c(c2)CCN(C(=O)c2ccccc2)C3)C1 [Example 16, [6-((2S,3′S)-2-Methyl-[1,3′]bipyrrolidinyl-1′-yl)-3,4-dihydro-1H-isoquinolin-2-yl]-phenyl-methanone]",0.29,7.3,−18.9
"C[C@H]1CCCN1[C@H]1CCN(c2ccc3c(c2)CCN(C(=O)c2ccc(F)cc2)C3)C1 [Example 17, (4-Fluoro-phenyl)-[6-((2S,3′S)-2-methyl-[1,3′]bipyrrolidinyl-1′-yl)-3,4-dihydro-1H-isoquinolin-2-yl]-methanone]",0.19,3.1,−10.4
"C[C@H]1CCCN1[C@H]1CCN(c2ccc3c(c2)CCN(C(=O)C2CCCCC2)C3)C1 [Example 18, Cyclohexyl-[6-((2S,3′S)-2-methyl-[1,3′]bipyrrolidinyl-1′-yl)-3,4-dihydro-1H-isoquinolin-2-yl]-methanone]",0.094,0.24,−10.7
"C[C@H]1CCCN1[C@H]1CCN(c2ccc3c(c2)CCN(C(=O)C2CCOCC2)C3)C1 [Example 19, [6-((2S,3′S)-2-Methyl-[1,3′]bipyrrolidinyl-1′-yl)-3,4-dihydro-1H-isoquinolin-2-yl]-(tetrahydro-pyran-4-yl)-methanone]",0.12,0.22,−17.4
"C[C@H]1CCCN1[C@H]1CCN(c2ccc3c(c2)CCN(C(=O)c2cc4c(ccn4CCOC[Si](C)(C)C)s2)C3)C1 [Example 20, [6-((2S,3′S)-2-Methyl-[1,3′]bipyrrolidinyl-1′-yl)-3,4-dihydro-1H-isoquinolin-2-yl]-[4-(2-trimethylsilanylmethoxy-ethyl)-4H-thieno[3,2-b]pyrrol-2-yl]-methanone]",22,140,−23.0
"C[C@H]1CCCN1[C@H]1CCN(c2ccc3c(c2)CCN(C(=O)C2CCCC2)C3)C1 [Example 21, Cyclopentyl-[6-((2S,3′S)-2-methyl-[1,3′]bipyrrolidinyl-1′-yl)-3,4-dihydro-1H-isoquinolin-2-yl]-methanone]",0.15,0.51,−12.2
"COc1cccc(S(=O)(=O)N2CCc3cc(N4CC[C@H](N5CCC[C@@H]5C)C4)ccc3C2)c1.O=C(O)C(F)(F)F [Example 22, 2-(3-Methoxy-benzenesulfonyl)-6-((2S,3′S)-2-methyl-[1,3′]bipyrrolidinyl-1′-yl)-1,2,3,4-tetrahydro-isoquinoline; compound with trifluoro-acetic acid]",25,15,−27.7
"COc1cccc(NC(=O)N2CCc3cc(N4CC[C@H](N5CCC[C@@H]5C)C4)ccc3C2)c1 [Example 23, 6-((2S,3′S)-2-Methyl-[1,3′]bipyrrolidinyl-1′-yl)-3,4-dihydro-1H-isoquinoline-2-carboxylic acid (3-methoxy-phenyl)-amide]",11,280,−22.5

# Reference: patent US8871788B2, “Substituted N-alkyl and N-acyl tetrahydro-isoquinoline derivatives, preparation and therapeutic use thereof” (Sanofi, priority 2010, dated 2014)
